Source: US20190216761A1, “COMPOSITIONS COMPRISING 15-HEPE AND METHODS OF USING THE SAME” (Afimmune Limited, priority 2015, published 2019)

Target: T1, hPPARγ (Homo sapiens, UniProt P37231)
T1 construct: expressed in transfected cells
T1 sequence (P37231 238-503 limits assumed): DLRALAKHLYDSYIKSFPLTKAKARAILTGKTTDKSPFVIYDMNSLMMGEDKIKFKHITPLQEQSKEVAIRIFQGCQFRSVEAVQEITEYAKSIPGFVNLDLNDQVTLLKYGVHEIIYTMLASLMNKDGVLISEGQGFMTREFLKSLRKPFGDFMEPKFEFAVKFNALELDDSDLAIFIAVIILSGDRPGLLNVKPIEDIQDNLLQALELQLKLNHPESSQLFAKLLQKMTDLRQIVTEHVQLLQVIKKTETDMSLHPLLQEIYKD
Assay: PPAR antagonist reporter assay (reference agonist at EC80)
Assay type: cell-based
Conditions: for inhibition of human PPARs (in words), hPPARγ: at higher test concentrations
Protocol: This study utilized proprietary reporter cells expressing a hybrid receptor comprising the N-terminal Gal4 DNA binding domain fused to the ligand binding domain of the specific human nuclear receptor (hPPARα, hPPARδ, and hPPARγ) and rat nuclear receptor (rPPARα, rPPARδ, and rPPARγ). The reporter vectors used in this Example comprise the firefly luciferase gene functionally linked to the Gal4 upstream activation sequence.
Nuclear Receptor assay was performed by suspending Reporter Cells in CRM containing 10% charcoal stripped FBS. 2×-EC80 concentrations of the appropriate reference agonist were then added to the Reporter Cell suspension, and 100 μL of the mixture dispensed into wells of a white 96-well plate. Test compounds were diluted using compound screening medium (CSM) containing 10% charcoal stripped FBS to generate “2×-concentration” treatment media. Immediately after this dilution step, 100 μL of each diluted 2×-concentration treatment medium was dispensed (in triplicate) into the Reporter Cell-containing assay wells.
After incubation at 37° C. for 24 hours, the treatment media was discarded. Each well was rinsed once with LCM Buffer; LCM substrate was then added. After incubation for 30 minutes at 37° C., fluorescence was measured to determine the relative number of live cells per assay well. LCM substrate was then discarded and 100 μL of Luciferase Detection Reagent substrate was added to each well. RLUs were quantified from each well to determine nuclear receptor activities.

SMILES | % Inhibition of agonist-stimulated receptor activity vs. 0.10% DMSO, hPPAR-γ (137 nM) [%] | % Inhibition of agonist-stimulated receptor activity vs. 0.10% DMSO, hPPAR-γ (412 nM) [%] | % Inhibition of agonist-stimulated receptor activity vs. 0.10% DMSO, hPPAR-γ (1,235 nM) [%] | % Inhibition of agonist-stimulated receptor activity vs. 0.10% DMSO, hPPAR-γ (3,704 nM) [%] | % Inhibition of agonist-stimulated receptor activity vs. 0.10% DMSO, hPPAR-γ (11,111 nM) [%] | % Inhibition of agonist-stimulated receptor activity vs. 0.10% DMSO, hPPAR-γ (33,333 nM) [%] | % Inhibition of agonist-stimulated receptor activity vs. 0.10% DMSO, hPPAR-γ (100,000 nM) [%] | % Inhibition of agonist-stimulated receptor activity vs. 0.10% DMSO, hPPAR-γ (300,000 nM) [%] | inhibition of human PPARs (in words), hPPARγ
CC/C=C\C[C@H](O)/C=C/C=C\C/C=C\C/C=C\CCCC(=O)OCC [15-HEPE-EE, 15-HEPE ethyl ester] | 17 | 0.87 | −1.4 | −4.6 | −0.42 | 5.2 | 44 | 100 | apparent inhibition
CC/C=C\C/C=C\C/C=C\C/C=C\C/C=C\CCCC(=O)OCC [EPA-EE, EPA ethyl ester, reference compound] | 13 | 3.8 | −8.0 | −11 | −8.4 | 2.9 | −0.59 | 30 | does not exhibit similar inhibitory activity
